Several values for one entry are separate records, joined by “and”; a condition that tells them apart may be missing. Identical values can stand only once.
Tests used:
Experiment in all cases: Antifungal growth assay in potato dextrose broth, 24-well
Type in all cases: cell-based
[1] = tested on: Phytophthora cactorum; design: key: NI, no inhibition; p (partial), at least 50% inhibited
Method: (§1) Fungi to be tested were propagated on potato dextrose agar (PDA) plates at room temperature. Stock solutions of pseudomycins and depsipeptide were suspended in dimethylsulfoxide (DMSO) (Sigma) at 5 mg/ml and stored at −20C. Serial dilutions of compounds were done the day of the experiment. All serial dilutions were made in DMSO. […] These are noted in the raw data section.
(§2) Assays were performed in 24-well cell culture clusters (Costar 3524), with 990 ul potato dextrose broth (PDB, Difco) and 10 ul of the compound to be tested in each well. Initial concentrations tested were 50-1.56 ug/ml (final concentration of pseudomycin). Actual concentrations of pseudomycins tested were 50, 25, 12.5, 6.25, 3.12 and 1.56 ug/ml. Each well was inoculated with the appropriate fungus. Unless noted, the fungal inoculum consisted of an ˜4 mm^2 piece of PDA with fungal mycelium. The exceptions were as follows. Ustilago maydis: this fungus grows much like a yeast on PDA, and cells were scraped from the PDA stock plate, resuspended in PDB and 10 ul inoculum added to each well. Monilinia sp.: this fungal mycelium grows as a very loose sheet on top of PDA and would not adhere to agar blocks. Fungal mycelium was ground with a metal rod in 500 ul PDB and 10 ul inoculum was added to each well. Mycosphaeella fijiensis, Septoria passerinii, Septoria triticii: these fungi all grow very slowly and the results were difficult to score if a small piece of agar with fungal mycelium on it was used as an inoculum. For these fungi, the mycelium was ground with a metal rod in 500 ul PDB and 10 ul inoculum was added to each well.
(§3) Wells were scored for fungal growth at two days and five days. Some slow growing fungi were scored at later days for growth because assessment was not possible at two or five days. Growth was scored by comparison to a control consisting of fungus inoculated into 990 ul potato dextrose broth and 10 ul of DMSO (Dimethylsulfoxide). An additional control consisting of fungal inoculum in PDB only was performed to ensure that the DMSO was not inhibitory to fungal growth.
(§4) For assays that were repeated, new stock solutions were made from a second shipment of pseudomycins. Note that pseudomycin B′ and depsipeptide stock solutions were remade from first shipment materials because these were not included in the second shipment. […] Actual concentrations of pseudomycins tested were 2, 1, 0.5, 0.25, 0.125 and 0.0625 ug/ml. A-PO4 and A-FB=pseudomycin A phosphate salt and free base respectively.
(§5) Table 2: Two day results—concentration indicated is lowest level of compound (ug /ml) that results is no growth. NI, no inhibition; p (partial), at least 50% inhibited; -, not determined. If number of assays was greater than one, number of assays performed on the fungus is noted in parentheses. For several slow-growing fungi, days elapsed before observation (if different than two) are noted.
(§6) Table 3: Five day results—concentration indicated is lowest level of compound (ug /ml) that results in no growth. NI, no inhibition; p (partial), at least 50% inhibited; -, not performed on the fungus is noted in parentheses. For several slow-growing fungi, days elapsed before observation (if different than five) are noted.

[2] = tested on: Fusarium oxysporum cubense; design: key: NI, no inhibition; p (partial), at least 50% inhibited
Method: as §1, §2, §3, §4, §5, §6

[3] = tested on: Verticillium dahliae; design: key: NI, no inhibition; p (partial), at least 50% inhibited; details: 2x assays
Method: as §1, §2, §3, §4, §5, §6

[4] = tested on: Drechslera tritici-repentis; design: key: NI, no inhibition; p (partial), at least 50% inhibited
Method: as §1, §2, §3, §4, §5, §6

[5] = tested on: Fusarium culmorum; design: key: NI, no inhibition; p (partial), at least 50% inhibited
Method: as §1, §2, §3, §4, §5, §6

[6] = tested on: Stagonospora nodorum; design: key: NI, no inhibition; p (partial), at least 50% inhibited
Method: as §1, §2, §3, §4, §5, §6

[7] = tested on: Pestalotiopsis microspora NE-32; design: key: NI, no inhibition; p (partial), at least 50% inhibited
Method: as §1, §2, §3, §4, §5, §6

[8] = tested on: Alternaria helianthi; design: key: NI, no inhibition; p (partial), at least 50% inhibited; details: 2x assays
Method: as §1, §2, §3, §4, §5, §6

[9] = tested on: Bipolaris sorokiniana; design: key: NI, no inhibition; p (partial), at least 50% inhibited
Method: as §1, §2, §3, §4, §5, §6

[10] = tested on: Phoma chrysamthecola; design: key: NI, no inhibition; p (partial), at least 50% inhibited; details: five day results
Method: as §1, §2, §3, §4, §5, §6

[11] = tested on: Drechslera teres; design: key: NI, no inhibition; p (partial), at least 50% inhibited
Method: as §1, §2, §3, §4, §5, §6

[12] = tested on: Ustilago maydis; details: 3x assays
Method: as §1, §2, §3, §4, §5, §6

[13] = tested on: Mycosphaeella fijiensis (8088/88); details: 3x assays
Method: as §1, §2, §3, §4, §5, §6

[14] = tested on: Mycosphaeella fijiensis (Sigatoka); details: 3x assays
Method: as §1, §2, §3, §4, §5, §6

[15] = tested on: Septoria passerinii; details: 3x assays
Method: as §1, §2, §3, §4, §5, §6

[16] = tested on: Monilinia sp.; details: 2x assays
Method: as §1, §2, §3, §4, §5, §6

[17] = tested on: Rhizoctonia solani; details: 2x assays
Method: as §1, §2, §3, §4, §5, §6

[18] = tested on: Geotrichim candidum; details: 3x assays
Method: as §1, §2, §3, §4, §5, §6

[19] = tested on: Drechslera portulacae; details: 3x assays
Method: as §1, §2, §3, §4, §5, §6

[20] = tested on: Septoria tritici; details: 3x assays
Method: as §1, §2, §3, §4, §5, §6

[21] = tested on: Penicillium roqueforti; details: 3x assays
Method: as §1, §2, §3, §4, §5, §6

[22] = Table 2 (two day results), observed at 7 day
[23] = Table 3 (five day results), observed at 21 days

pseudomycin A-PO4
lowest level of compound that results in no growth ([1]; five day results): NI
lowest level of compound that results in no growth ([1]; two day results): NI
lowest level of compound that results in no growth ([2]; five day results): NI
lowest level of compound that results in no growth ([2]; two day results): NI
lowest level of compound that results in no growth ([3]; five day results): p at 50
lowest level of compound that results in no growth ([3]; two day results): p at 50
lowest level of compound that results in no growth ([4]; five day results): p at 50
lowest level of compound that results in no growth ([4]; two day results, 2x assays): 50 µg/mL
lowest level of compound that results in no growth ([5]; five day results): NI
lowest level of compound that results in no growth ([5]; two day results): NI
lowest level of compound that results in no growth ([6]; five day results): NI
lowest level of compound that results in no growth ([6]; two day results): NI
lowest level of compound that results in no growth ([7]; five day results): NI
lowest level of compound that results in no growth ([7]; two day results): p at 50
lowest level of compound that results in no growth ([8]; five day results): 25 µg/mL
lowest level of compound that results in no growth ([8]; two day results): 25 µg/mL
lowest level of compound that results in no growth ([9]; five day results): NI
lowest level of compound that results in no growth ([9]; two day results): NI
lowest level of compound that results in no growth [10]: NI
lowest level of compound that results in no growth ([11]; five day results): NI
lowest level of compound that results in no growth ([11]; two day results): NI
lowest level of compound that results in no growth ([12]; five day results): 1 µg/mL
lowest level of compound that results in no growth ([12]; two day results): 0.5 µg/mL
lowest level of compound that results in no growth [13, 22]: 0.12 µg/mL
lowest level of compound that results in no growth [13, 23]: 0.25 µg/mL
lowest level of compound that results in no growth [14, 22]: 1 µg/mL
lowest level of compound that results in no growth [14, 23]: 1 µg/mL
lowest level of compound that results in no growth ([15]; five day results): 0.12 µg/mL
lowest level of compound that results in no growth ([15]; two day results): 0.125 µg/mL
lowest level of compound that results in no growth ([16]; five day results): 12.5 µg/mL
lowest level of compound that results in no growth ([16]; two day results): 12.5 µg/mL
lowest level of compound that results in no growth ([17]; five day results): 12.5 µg/mL
lowest level of compound that results in no growth ([17]; two day results): 6.25 µg/mL
lowest level of compound that results in no growth ([18]; five day results): 6.25 µg/mL
lowest level of compound that results in no growth ([18]; two day results): 12.5 µg/mL
lowest level of compound that results in no growth ([19]; Table 3 (five day results), observed at 9 day, listed as A-PO4): 0.06 µg/mL
lowest level of compound that results in no growth ([19]; Table 3 (five day results), observed at 9 day, listed as pseudomycin A (PO4)): 0.0625 µg/mL
lowest level of compound that results in no growth ([19]; two day results): 0.06 µg/mL
lowest level of compound that results in no growth ([20]; five day results): 0.25 µg/mL
lowest level of compound that results in no growth ([20]; two day results): 0.25 µg/mL
lowest level of compound that results in no growth ([21]; five day results): 3.12 µg/mL
lowest level of compound that results in no growth ([21]; two day results): 0.5 µg/mL

Pseudomycin C
lowest level of compound that results in no growth ([1]; five day results): NI
lowest level of compound that results in no growth ([1]; two day results): NI
lowest level of compound that results in no growth ([2]; five day results): NI
lowest level of compound that results in no growth ([2]; two day results): NI
lowest level of compound that results in no growth ([3]; five day results): p at 50
lowest level of compound that results in no growth ([3]; two day results): 25 µg/mL
lowest level of compound that results in no growth ([4]; five day results): NI
lowest level of compound that results in no growth ([4]; two day results, 2x assays): 50 µg/mL
lowest level of compound that results in no growth ([5]; five day results): NI
lowest level of compound that results in no growth ([5]; two day results): NI
lowest level of compound that results in no growth ([6]; five day results): NI
lowest level of compound that results in no growth ([6]; two day results): NI
lowest level of compound that results in no growth ([7]; five day results): NI
lowest level of compound that results in no growth ([7]; two day results): NI
lowest level of compound that results in no growth ([8]; five day results): NI
lowest level of compound that results in no growth ([8]; two day results): p at 50
lowest level of compound that results in no growth ([9]; five day results): NI
lowest level of compound that results in no growth ([9]; two day results): NI
lowest level of compound that results in no growth [10]: NI
lowest level of compound that results in no growth ([11]; five day results): NI
lowest level of compound that results in no growth ([11]; two day results): NI
lowest level of compound that results in no growth ([12]; five day results): 0.25 µg/mL
lowest level of compound that results in no growth ([12]; two day results): 0.25 µg/mL
lowest level of compound that results in no growth [13, 22]: 0.125 µg/mL
lowest level of compound that results in no growth [13, 23]: 0.25 µg/mL
lowest level of compound that results in no growth [14, 22]: 1.56 µg/mL
lowest level of compound that results in no growth [14, 23]: 1.56 µg/mL
lowest level of compound that results in no growth ([15]; five day results): 0.0625 µg/mL and 0.06 µg/mL
lowest level of compound that results in no growth ([15]; two day results): 0.06 µg/mL
lowest level of compound that results in no growth ([16]; five day results): 12.5 µg/mL
lowest level of compound that results in no growth ([16]; two day results): 6.25 µg/mL
lowest level of compound that results in no growth ([17]; five day results): p at 50
lowest level of compound that results in no growth ([17]; two day results): 25 µg/mL
lowest level of compound that results in no growth ([18]; five day results): 25 µg/mL
lowest level of compound that results in no growth ([18]; two day results): 3.12 µg/mL
lowest level of compound that results in no growth ([19]; Table 3 (five day results), observed at 9 day): 0.0625 µg/mL and 0.06 µg/mL
lowest level of compound that results in no growth ([19]; two day results): 0.06 µg/mL
lowest level of compound that results in no growth ([20]; five day results): 0.25 µg/mL
lowest level of compound that results in no growth ([20]; two day results): 0.125 µg/mL
lowest level of compound that results in no growth ([21]; five day results): 12.5 µg/mL
lowest level of compound that results in no growth ([21]; two day results): 1.56 µg/mL

From patent US7326689B2, “Pseudomycins useful against plant diseases” (Eli Lilly and Company, priority 2000, dated 2008)
